Tested on: 186277-243-T-J2-PDC complex spheroid viability
Assay: Anticancer human tumor 186277-243-T-J2-PDC patient-derived colon adenocarcinoma cell line growth inhibition [POLQ]
Settings: for IC50: curve of first compound; for viability, T/C: stronger effect = lower value
How it was run: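 Patient-derived tumour cells were co-cultured with HUVEC and mesenchymal stem cells as multicellular spheroids at 37 °C. They were treated with POLQ inhibitors (novobiocin, ART-558, RP6685) alone or combined with other agents. Top concentrations were at or near clinical Cmax (otherwise 10 microM; SN-38 at 1 microM), decreasing in half-log steps.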

[1] = second compound 0.0316 µM, first compound 0.0316 µM
[2] = second compound 0.0316 µM, first compound 0.1 µM
[3] = second compound 0.0316 µM, first compound 0.316 µM
[4] = second compound 0.0316 µM, first compound 1 µM
[5] = second compound 0.0316 µM, first compound 3.16 µM
[6] = second compound 0.0316 µM, first compound 10 µM
[7] = second compound 0.1 µM, first compound 0.0316 µM
[8] = second compound 0.1 µM, first compound 0.1 µM
[9] = second compound 0.1 µM, first compound 0.316 µM
[10] = second compound 0.1 µM, first compound 1 µM
[11] = second compound 0.1 µM, first compound 3.16 µM
[12] = second compound 0.1 µM, first compound 10 µM
[13] = second compound 0.316 µM, first compound 0.0316 µM
[14] = second compound 0.316 µM, first compound 0.1 µM
[15] = second compound 0.316 µM, first compound 0.316 µM
[16] = second compound 0.316 µM, first compound 1 µM
[17] = second compound 0.316 µM, first compound 3.16 µM
[18] = second compound 0.316 µM, first compound 10 µM
[19] = second compound 1 µM, first compound 0.0316 µM
[20] = second compound 1 µM, first compound 0.1 µM
[21] = second compound 1 µM, first compound 0.316 µM
[22] = second compound 1 µM, first compound 1 µM
[23] = second compound 1 µM, first compound 3.16 µM
[24] = second compound 1 µM, first compound 10 µM
[25] = second compound 3.16 µM, first compound 0.0316 µM
[26] = second compound 3.16 µM, first compound 0.1 µM
[27] = second compound 3.16 µM, first compound 0.316 µM
[28] = second compound 3.16 µM, first compound 1 µM
[29] = second compound 3.16 µM, first compound 3.16 µM
[30] = second compound 3.16 µM, first compound 10 µM
[31] = second compound 10 µM, first compound 0.0316 µM
[32] = second compound 10 µM, first compound 0.1 µM
[33] = second compound 10 µM, first compound 0.316 µM
[34] = second compound 10 µM, first compound 1 µM
[35] = second compound 10 µM, first compound 3.16 µM
[36] = second compound 10 µM, first compound 10 µM
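Note: spheroids exposed to compounds for seven days.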
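Throughout, for viability, T/C: 100% = DMSO vehicle control viability.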

C#Cc1c(F)ccc2cc(O)cc(-c3ncc4c(N5CC6CCC(C5)N6)nc(OCC56CCCN5CC(F)C6)nc4c3F)c12 (stereo not drawn) + Cc1cccc(N(C)C(=O)C2C(O)CCN2c2nc(C)cc(C(F)(F)F)c2C#N)c1
IC50 (second compound 0.0316 µM): 97.5 nM
IC50 (second compound 0.1 µM): 113 nM
IC50 (second compound 0.316 µM): 79.9 nM
IC50 (second compound 1 µM): 84.2 nM
IC50 (second compound 3.16 µM): 63.9 nM
IC50 (second compound 10 µM): 32.8 nM
viability, T/C [1]: 81.1%
viability, T/C [2]: 49.3%
viability, T/C [3]: 21.4%
viability, T/C [4]: 8.81%
viability, T/C [5]: 6.82%
viability, T/C [6]: 4.22%
viability, T/C [7]: 80.7%
viability, T/C [8]: 53.5%
viability, T/C [9]: 21.9%
viability, T/C [10]: 9.85%
viability, T/C [11]: 6.56%
viability, T/C [12]: 4.18%
viability, T/C [13]: 86.9%
viability, T/C [14]: 41%
viability, T/C [15]: 16.9%
viability, T/C [16]: 8.42%
viability, T/C [17]: 6.35%
viability, T/C [18]: 5.85%
viability, T/C [19]: 89.8%
viability, T/C [20]: 43%
viability, T/C [21]: 19.6%
viability, T/C [22]: 11%
viability, T/C [23]: 6.21%
viability, T/C [24]: 4.34%
viability, T/C [25]: 80.6%
viability, T/C [26]: 30.4%
viability, T/C [27]: 11.1%
viability, T/C [28]: 6.02%
viability, T/C [29]: 6.21%
viability, T/C [30]: 5.42%
viability, T/C [31]: 51.6%
viability, T/C [32]: 18.2%
viability, T/C [33]: 11%
viability, T/C [34]: 5.4%
viability, T/C [35]: 4.3%
viability, T/C [36]: 3.05%

C=CC(=O)N1CCN(c2nc(=O)n(-c3c(C)ccnc3C(C)C)c3nc(-c4c(O)cccc4F)c(F)cc23)C(C)C1 (stereo not drawn) + Cc1cccc(N(C)C(=O)C2C(O)CCN2c2nc(C)cc(C(F)(F)F)c2C#N)c1
IC50 (second compound 0.0316 µM): > 10000 nM
IC50 (second compound 0.1 µM): > 10000 nM
IC50 (second compound 0.316 µM): > 10000 nM
IC50 (second compound 1 µM): > 10000 nM
IC50 (second compound 3.16 µM): > 10000 nM
IC50 (second compound 10 µM): > 10000 nM
viability, T/C [1]: 92.8%
viability, T/C [2]: 101%
viability, T/C [3]: 82.2%
viability, T/C [4]: 90.9%
viability, T/C [5]: 99.5%
viability, T/C [6]: 103%
viability, T/C [7]: 106%
viability, T/C [8]: 98.6%
viability, T/C [9]: 103%
viability, T/C [10]: 84.7%
viability, T/C [11]: 107%
viability, T/C [12]: 104%
viability, T/C [13]: 90.4%
viability, T/C [14]: 91.5%
viability, T/C [15]: 102%
viability, T/C [16]: 99.5%
viability, T/C [17]: 112%
viability, T/C [18]: 102%
viability, T/C [19]: 99.8%
viability, T/C [20]: 108%
viability, T/C [21]: 98.6%
viability, T/C [22]: 96.2%
viability, T/C [23]: 108%
viability, T/C [24]: 101%
viability, T/C [25]: 106%
viability, T/C [26]: 99%
viability, T/C [27]: 84%
viability, T/C [28]: 106%
viability, T/C [29]: 111%
viability, T/C [30]: 103%
viability, T/C [31]: 97.9%
viability, T/C [32]: 106%
viability, T/C [33]: 108%
viability, T/C [34]: 102%
viability, T/C [35]: 97.3%
viability, T/C [36]: 95.9%

CC(C)n1c(=O)n(C)c2cnc3cc(F)c(-c4ccc(OCCCN5CCCCC5)nc4)cc3c21 + Cc1cccc(N(C)C(=O)C2C(O)CCN2c2nc(C)cc(C(F)(F)F)c2C#N)c1
IC50 (second compound 0.0316 µM): > 10000 nM
IC50 (second compound 0.1 µM): > 10000 nM
IC50 (second compound 0.316 µM): > 10000 nM
IC50 (second compound 1 µM): > 10000 nM
IC50 (second compound 3.16 µM): > 10000 nM
IC50 (second compound 10 µM): > 10000 nM
viability, T/C [1]: 101%
viability, T/C [2]: 97.7%
viability, T/C [3]: 94.8%
viability, T/C [4]: 90.8%
viability, T/C [5]: 119%
viability, T/C [6]: 100%
viability, T/C [7]: 88.8%
viability, T/C [8]: 93.2%
viability, T/C [9]: 103%
viability, T/C [10]: 92.3%
viability, T/C [11]: 98%
viability, T/C [12]: 88.2%
viability, T/C [13]: 90.6%
viability, T/C [14]: 95.6%
viability, T/C [15]: 94%
viability, T/C [16]: 87.6%
viability, T/C [17]: 119%
viability, T/C [18]: 93.9%
viability, T/C [19]: 104%
viability, T/C [20]: 107%
viability, T/C [21]: 99.6%
viability, T/C [22]: 102%
viability, T/C [23]: 102%
viability, T/C [24]: 84.5%
viability, T/C [25]: 84.3%
viability, T/C [26]: 86.8%
viability, T/C [27]: 99.4%
viability, T/C [28]: 96%
viability, T/C [29]: 107%
viability, T/C [30]: 97.2%
viability, T/C [31]: 112%
viability, T/C [32]: 94.6%
viability, T/C [33]: 103%
viability, T/C [34]: 114%
viability, T/C [35]: 94.9%
viability, T/C [36]: 82.7%

CC1COCCN1c1cc(C2(O)CC3CCC(C2)O3)c2cnn(-c3ccn[nH]3)c2n1 (stereo not drawn) + Cc1cccc(N(C)C(=O)C2C(O)CCN2c2nc(C)cc(C(F)(F)F)c2C#N)c1
IC50 (second compound 0.0316 µM): 43.3 nM
IC50 (second compound 0.1 µM): 42.2 nM
IC50 (second compound 0.316 µM): 44 nM
IC50 (second compound 1 µM): 42.6 nM
IC50 (second compound 3.16 µM): 37.7 nM
IC50 (second compound 10 µM): < 31.6 nM
viability, T/C [1]: 64.5%
viability, T/C [2]: 11.7%
viability, T/C [3]: 6.18%
viability, T/C [4]: 3.85%
viability, T/C [5]: 4.2%
viability, T/C [6]: 4.79%
viability, T/C [7]: 63.9%
viability, T/C [8]: 8.95%
viability, T/C [9]: 5.9%
viability, T/C [10]: 3.73%
viability, T/C [11]: 3.97%
viability, T/C [12]: 3.76%
viability, T/C [13]: 65.4%
viability, T/C [14]: 12.1%
viability, T/C [15]: 4.75%
viability, T/C [16]: 3.38%
viability, T/C [17]: 4.54%
viability, T/C [18]: 3.64%
viability, T/C [19]: 63.3%
viability, T/C [20]: 12.2%
viability, T/C [21]: 5.42%
viability, T/C [22]: 3.92%
viability, T/C [23]: 4.12%
viability, T/C [24]: 4.45%
viability, T/C [25]: 57.4%
viability, T/C [26]: 9.6%
viability, T/C [27]: 5.36%
viability, T/C [28]: 3.46%
viability, T/C [29]: 4.49%
viability, T/C [30]: 4.05%
viability, T/C [31]: 45.9%
viability, T/C [32]: 8.7%
viability, T/C [33]: 4.15%
viability, T/C [34]: 3.16%
viability, T/C [35]: 4.29%
viability, T/C [36]: 3.09%

Source: PubChem BioAssay AID1963854 (Molecular Pharmacology Branch, DTP, NCI, 2024)
